{"source": "patent US20100197584A1", "about": "“USE OF CURCUMIN TO BLOCK BRAIN TUMOR FORMATION IN MICE” (Research Foundations of the City University of- New York, priority 2007, published 2010)", "key": {"VEGF": {"system": "VEGF", "assay": "Western blot of B16F10 cells, VEGF", "assay_type": "cell-based, mouse", "conditions": "50 μM", "method": "(§1) B16F10 cells were cultured in 10-cm plates and then treated in duplicate with carrier or curcumin (50 μM). Following treatment for appropriate time periods, the cells were washed with PBS, lysed in RIPA buffer (PBS containing 1% Nonidet P40, 0.5% sodium deoxycholate, 0.1% SDS, 0.5 mM Na3VO4 plus freshly added PMSF and protease inhibitor cocktail; Boeringer-Roche), and then 20 μg of lysate protein (per lane) were analyzed by SDS-10% PAGE and Western blot analysis. Antibody concentrations used were: anti-phospho-NF-κB (1:1000) (Santa Cruz Biotechnology, Santa Cruz, Calif.), anti-phospho-Akt (1:5000) (Cell Signaling, CA), anti-cyclin D1 (1:1000) (Cell Signaling, CA), anti-BclXL (1:500) (Santa Cruz Biotechnology), anti-VEGF (1:500) (Santa Cruz Biotechnology), and anti-β-actin (1:1000) (Sigma, St. Louis, Mo.)."}, "phospho-Akt": {"system": "phospho-Akt", "assay": "Western blot of B16F10 cells, phospho-Akt", "assay_type": "cell-based, mouse", "conditions": "50 μM (FIG. 9)", "method": "as §1"}, "[1]": {"system": "HOG (human oligodendroglioma) cells", "assay": "Cell viability assay using MTT, HOG", "assay_type": "cell-based", "conditions": "25 μM and 50 μM, 48 h or 96 h, versus control cells (FIG. 6e)", "method": "Cells. B16F10 (mouse melanoma), GL261 (mouse glioma), HOG (human oligodendroglioma), A549 (human lung cancer), and N18 (mouse neuroblastoma) cells were cultured separately in DMEM containing 10% (v/v) fetal bovine serum and 1% (v/v) penicillin-streptomycin (PS) and allowed to grow to 40% confluence in a 96-well plate.\nCurcumin Treatment. Two hours before drug treatment, the medium in each well was replaced with 200 μl Neurobasal medium supplemented with 2% (v/v) B27 and 1% (v/v) PS (Drug-treatment Medium). A stock solution (40 mM) of curcumin was prepared in sterile dimethyl sulfoxide (DMSO) (Example 1). Through serial dilution of each stock solution in Drug-treatment Medium, the following concentrations were obtained: 20 μM and 50 μM (for caspase 3/7 assays) or 25 μM and 50 μM (for MTT assays). […] Additionally, the background absorbance was determined from parallel wells containing only the Drug-treatment Medium plus a particular concentration of the drug (no cells).\nCell Viability Assay Using MTT (3-(4,5-Dimethylthiazolyl-2)-2,5-Diphenyltetrazolium Bromide). […] Absorbance was measured at 570 nm using a 96-well multi scanner auto-reader with the extraction buffer used as blank. For curcumin samples, the absorbance obtained from the corresponding curcumin plus medium samples was subtracted."}, "[2]": {"system": "human pancreatic carcinoma cell lines", "conditions": "human pancreatic carcinoma cell lines (Li et al. 2004); cited from earlier work"}, "[3]": {"assay": "Permeability of the blood-brain barrier to curcumin (HPLC of brain after tail vein injection)", "assay_type": "in vivo, mouse", "method": "A curcumin solution (200 μl of 667 μM curcumin in PBS containing 3% DMSO) was injected through the tail vein of each mouse, the mice were sacrificed after 15 min, 30 min, and 2 hours, and brain regions (forebrain, hippocampus, and hypothalamus) as well as blood were collected for analysis. Each tissue fraction was diluted into 300 μl of water, homogenized, and then diluted with 700 μl of acetonitrile. Proteins and other insoluble substances were separated by centrifugation at 8000 rpm in a table-top Eppendorf microcentrifuge, and the supernatants were transferred to fresh tubes and then evaporated by blowing in nitrogen gas. The blood (100 μl) was diluted with 40 μl EDTA (500 mM) and 160 μl of water. This mixture was diluted with 700 μl of actonitrile, vortexed, protein and debris separated by centrifugation and then the supernatant evaporated under nitrogen. The residues obtained were dissolved in 50 μl of acetonitrile:water (70:30) and 30 μl of this solution injected for HPLC analysis on a C18 reverse-phase column. A standard 0.1 mM solution of curcumin dissolved in acetonitrile:water (70:30) was injected for comparison. The mobile phase was a 30-70% gradient of acetonitrile in water containing 0.1% trifluoroacetic acid (TFA). Curcumin eluted as a closely spaced triplet with the strongest peak eluting at 12.8 min."}, "human glioma cells": {"system": "human glioma cells", "conditions": "human glioma cells in vitro (Karmakar 2006; Dhandapani 2007); cited from earlier work"}, "breast tumor cell lines": {"system": "breast tumor cell lines", "conditions": "several breast tumor cell lines (Mehta et al. 1997); cited from earlier work"}, "Erk": {"system": "Erk", "assay": "Western blot of B16F10 cells, Erk", "assay_type": "cell-based, mouse", "conditions": "50 μM (FIG. 9)", "method": "as §1"}}}
{"compound": "COc1cc(/C=C/C(=O)CC(=O)/C=C/c2ccc(O)c(OC)c2)ccc1O", "note": "[curcumin]", "values": [{"measurement": "VEGF (Western blot)", "setting": "VEGF", "result": "suppressed"}, {"measurement": "phospho-Akt (Western blot)", "setting": "phospho-Akt", "result": "suppression"}, {"measurement": "cell viability (MTT)", "setting": "[1]", "result": "dramatic decrease"}, {"measurement": "apoptosis", "setting": "[2]", "result": "induces apoptosis"}, {"measurement": "curcumin in mouse brain (HPLC trace)", "setting": "[3]; 15 minutes after tail vein injection of 200 μl of 667 μM curcumin (FIG. 7b)", "result": "presence of curcumin"}, {"measurement": "curcumin in mouse brain (HPLC trace)", "setting": "[3]; 30 minutes after tail vein injection of 200 μl of 667 μM curcumin (FIG. 7c)", "result": "presence of curcumin"}, {"measurement": "time by which curcumin was completely metabolized", "setting": "[3]; mouse brain, after tail vein injection of 200 μl of 667 μM curcumin (FIG. 7d)", "result": "≤ 2", "unit": "h"}, {"measurement": "apoptosis", "setting": "human glioma cells", "result": "triggers apoptosis"}, {"measurement": "proliferation", "setting": "breast tumor cell lines", "result": "antiproliferative effects"}, {"measurement": "Erk (Western blot)", "setting": "Erk", "result": "suppression"}]}
